Source: the supplement of paper PMC9005190

What was measured:
[1] = biological target: AMY3; test: pEC50 of agonist-induced pathway activation (ebBRET)
[2] = tested on: AMY3; test: Emax (maximal agonist-induced change in ebBRET relative to vehicle) (% of vehicle response (amplitude of change)); higher = larger response (for Gs, larger decrease in membrane ebBRET, i.e. stronger Gs activation)
[3] = biological target: T1, B1 (UniProt P46663); test: pEC50 of agonist-induced pathway activation (ebBRET)
T1 sequence (whole entry): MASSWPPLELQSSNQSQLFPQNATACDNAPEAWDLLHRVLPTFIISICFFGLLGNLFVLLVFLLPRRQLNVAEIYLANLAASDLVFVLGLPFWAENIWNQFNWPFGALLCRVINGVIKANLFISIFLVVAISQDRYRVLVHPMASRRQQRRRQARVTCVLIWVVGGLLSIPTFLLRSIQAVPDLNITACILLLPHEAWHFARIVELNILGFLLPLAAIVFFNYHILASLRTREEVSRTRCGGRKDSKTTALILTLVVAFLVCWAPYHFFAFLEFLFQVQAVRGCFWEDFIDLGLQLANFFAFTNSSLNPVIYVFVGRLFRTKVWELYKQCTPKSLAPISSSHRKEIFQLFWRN

[4] = biological target: T2, B2 (UniProt P30411); test: as above
T2 sequence (whole entry): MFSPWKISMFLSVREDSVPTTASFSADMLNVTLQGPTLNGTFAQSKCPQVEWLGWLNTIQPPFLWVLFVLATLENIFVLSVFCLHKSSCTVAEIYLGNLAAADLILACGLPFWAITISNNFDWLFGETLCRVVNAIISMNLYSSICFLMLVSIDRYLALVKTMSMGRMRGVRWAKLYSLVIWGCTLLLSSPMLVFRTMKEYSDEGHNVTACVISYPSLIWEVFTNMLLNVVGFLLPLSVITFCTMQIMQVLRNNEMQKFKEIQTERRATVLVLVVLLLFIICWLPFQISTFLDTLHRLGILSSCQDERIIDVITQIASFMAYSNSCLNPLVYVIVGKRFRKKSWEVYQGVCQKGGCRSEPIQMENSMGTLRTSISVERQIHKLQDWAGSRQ

[5] = biological target: T1, B1; test: Emax (maximal agonist-induced change in ebBRET relative to vehicle) (% of vehicle response (amplitude of change)); higher = larger response (for Gs, larger decrease in membrane ebBRET, i.e. stronger Gs activation)
[6] = biological target: T2, B2; test: as above
[7] = biological target: mGluR8 (UniProt O00222); test: pEC50 of agonist-induced pathway activation (ebBRET)
[8] = biological target: HCA3 (UniProt P49019); test: as above
[9] = biological target: HCA3 (UniProt P49019); test: Emax (maximal agonist-induced change in ebBRET relative to vehicle) (% of vehicle response (amplitude of change)); higher = larger response (for Gs, larger decrease in membrane ebBRET, i.e. stronger Gs activation)
[10] = biological target: GPR4 (UniProt P46093); test: pEC50 of agonist-induced pathway activation (ebBRET)
[11] = biological target: GPR65 (UniProt Q8IYL9); test: as above
[12] = biological target: GPR68 (UniProt Q15743); test: as above
[13] = biological target: GPR4 (UniProt P46093); test: Emax (maximal agonist-induced change in ebBRET relative to vehicle) (% of vehicle response (amplitude of change)); higher = larger response (for Gs, larger decrease in membrane ebBRET, i.e. stronger Gs activation)
[14] = biological target: GPR65 (UniProt Q8IYL9); test: as above
[15] = biological target: GPR68 (UniProt Q15743); test: as above

Chain of mGluR8 (O00222 whole entry): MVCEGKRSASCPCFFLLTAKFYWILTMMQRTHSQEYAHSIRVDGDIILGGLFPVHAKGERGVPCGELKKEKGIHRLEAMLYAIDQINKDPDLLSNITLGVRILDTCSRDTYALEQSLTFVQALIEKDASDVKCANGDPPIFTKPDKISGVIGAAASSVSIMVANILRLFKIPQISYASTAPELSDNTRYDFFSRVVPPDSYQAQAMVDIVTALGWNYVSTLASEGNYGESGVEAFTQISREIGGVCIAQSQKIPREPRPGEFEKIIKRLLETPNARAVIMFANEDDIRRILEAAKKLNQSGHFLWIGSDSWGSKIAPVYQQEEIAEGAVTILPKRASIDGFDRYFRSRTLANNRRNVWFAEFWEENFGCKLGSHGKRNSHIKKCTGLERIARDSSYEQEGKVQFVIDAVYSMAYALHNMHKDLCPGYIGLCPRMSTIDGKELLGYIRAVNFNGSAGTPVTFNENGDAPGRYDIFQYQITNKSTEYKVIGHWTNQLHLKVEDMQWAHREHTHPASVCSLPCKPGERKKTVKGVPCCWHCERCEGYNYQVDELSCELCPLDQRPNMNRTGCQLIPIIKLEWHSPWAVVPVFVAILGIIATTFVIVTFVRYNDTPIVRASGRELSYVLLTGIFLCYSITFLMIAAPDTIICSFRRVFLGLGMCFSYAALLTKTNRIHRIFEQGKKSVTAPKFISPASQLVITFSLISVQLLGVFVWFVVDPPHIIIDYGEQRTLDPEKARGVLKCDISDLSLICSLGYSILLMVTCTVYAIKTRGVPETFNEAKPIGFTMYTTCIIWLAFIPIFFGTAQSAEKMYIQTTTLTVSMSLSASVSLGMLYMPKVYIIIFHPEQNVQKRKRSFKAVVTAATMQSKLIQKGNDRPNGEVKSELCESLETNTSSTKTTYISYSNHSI
Chain of GPR4 (P46093 whole entry, looked up): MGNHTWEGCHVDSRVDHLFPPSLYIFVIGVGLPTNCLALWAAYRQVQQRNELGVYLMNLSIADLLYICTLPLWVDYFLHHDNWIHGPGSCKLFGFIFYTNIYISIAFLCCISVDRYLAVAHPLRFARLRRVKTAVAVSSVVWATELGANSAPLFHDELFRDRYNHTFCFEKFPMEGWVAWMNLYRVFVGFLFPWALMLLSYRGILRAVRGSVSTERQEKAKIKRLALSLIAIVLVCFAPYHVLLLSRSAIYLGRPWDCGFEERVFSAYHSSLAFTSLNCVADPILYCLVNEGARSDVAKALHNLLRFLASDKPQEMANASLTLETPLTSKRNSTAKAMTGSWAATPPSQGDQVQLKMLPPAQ
Chain of GPR65 (Q8IYL9 whole entry): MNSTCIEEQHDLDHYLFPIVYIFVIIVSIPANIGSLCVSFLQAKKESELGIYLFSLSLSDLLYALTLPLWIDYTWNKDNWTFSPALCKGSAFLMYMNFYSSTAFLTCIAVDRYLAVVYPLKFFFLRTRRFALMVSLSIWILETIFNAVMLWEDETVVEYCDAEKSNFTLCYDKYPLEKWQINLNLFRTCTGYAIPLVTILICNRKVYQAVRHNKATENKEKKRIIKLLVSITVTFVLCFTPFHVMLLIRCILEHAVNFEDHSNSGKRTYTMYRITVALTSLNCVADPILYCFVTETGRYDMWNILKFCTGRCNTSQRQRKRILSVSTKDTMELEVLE
Chain of HCA3 (P49019 whole entry): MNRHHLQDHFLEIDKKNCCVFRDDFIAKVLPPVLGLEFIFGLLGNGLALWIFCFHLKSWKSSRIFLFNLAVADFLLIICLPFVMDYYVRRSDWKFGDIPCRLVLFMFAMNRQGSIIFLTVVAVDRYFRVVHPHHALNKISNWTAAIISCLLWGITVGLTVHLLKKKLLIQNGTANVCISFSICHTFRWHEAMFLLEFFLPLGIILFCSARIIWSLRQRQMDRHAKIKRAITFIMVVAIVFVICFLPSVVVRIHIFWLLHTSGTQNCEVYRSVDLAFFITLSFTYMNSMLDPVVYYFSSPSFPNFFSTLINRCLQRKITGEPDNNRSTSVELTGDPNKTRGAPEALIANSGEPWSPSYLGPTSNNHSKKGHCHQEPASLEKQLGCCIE
Chain of GPR68 (Q15743 whole entry): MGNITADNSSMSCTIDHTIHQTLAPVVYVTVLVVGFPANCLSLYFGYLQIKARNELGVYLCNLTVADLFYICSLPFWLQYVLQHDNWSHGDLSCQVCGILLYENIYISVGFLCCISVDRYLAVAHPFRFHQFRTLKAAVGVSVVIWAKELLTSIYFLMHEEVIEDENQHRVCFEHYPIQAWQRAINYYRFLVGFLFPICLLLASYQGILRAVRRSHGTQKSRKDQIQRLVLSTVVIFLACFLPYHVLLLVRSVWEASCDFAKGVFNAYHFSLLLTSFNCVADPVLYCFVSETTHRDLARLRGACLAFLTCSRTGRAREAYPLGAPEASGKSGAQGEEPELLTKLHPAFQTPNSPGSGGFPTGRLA

CC[C@H](C)[C@H](NC(=O)[C@H](C)NC(=O)CNC(=O)[C@H](Cc1ccccc1)NC(=O)[C@H](CC(N)=O)NC(=O)[C@H](CC(N)=O)NC(=O)[C@H](CO)NC(=O)[C@H](CO)NC(=O)[C@H](Cc1cnc[nH]1)NC(=O)[C@@H](NC(=O)[C@H](CC(C)C)NC(=O)[C@H](Cc1ccccc1)NC(=O)[C@H](CC(N)=O)NC(=O)[C@H](C)NC(=O)[C@H](CC(C)C)NC(=O)[C@H](CCCNC(=N)N)NC(=O)[C@H](CCC(N)=O)NC(=O)[C@@H](NC(=O)[C@H](C)NC(=O)[C@@H]1CSSC[C@H](NC(=O)[C@@H](N)CCCCN)C(=O)N[C@@H](CC(N)=O)C(=O)N[C@@H]([C@@H](C)O)C(=O)N[C@@H](C)C(=O)N[C@@H]([C@@H](C)O)C(=O)N1)[C@@H](C)O)C(C)C)C(=O)N[C@@H](CC(C)C)C(=O)N[C@@H](CO)C(=O)N[C@@H](CO)C(=O)N[C@H](C(=O)N[C@@H](CC(N)=O)C(=O)N[C@H](C(=O)NCC(=O)N[C@@H](CO)C(=O)N[C@@H](CC(N)=O)C(=O)N[C@H](C(=O)N[C@@H](Cc1ccc(O)cc1)C(N)=O)[C@@H](C)O)C(C)C)[C@@H](C)O [Amylin]
Conditions	Emax, pathway (G protein / arrestin sensor): G12	Emax, pathway (G protein / arrestin sensor): G13	Emax, pathway (G protein / arrestin sensor): G15	Emax, pathway (G protein / arrestin sensor): Gs	pEC50, pathway (G protein / arrestin sensor): G12	pEC50, pathway (G protein / arrestin sensor): G13	pEC50, pathway (G protein / arrestin sensor): G15	pEC50, pathway (G protein / arrestin sensor): Gs
[1]	–	–	–	–	8.6	8.49	7.22	7.79
[2]	62.3	271	122	21.4	–	–	–	–

NCCCC[C@H](N)C(=O)N[C@@H](CCCN=C(N)N)C(=O)N1CCC[C@H]1C(=O)N1CCC[C@H]1C(=O)NCC(=O)N[C@@H](Cc1ccccc1)C(=O)N[C@@H](CO)C(=O)N1CCC[C@H]1C(=O)N[C@@H](Cc1ccccc1)C(=O)N[C@@H](CCCN=C(N)N)C(=O)O [Kallidin]
Conditions	Emax, [5]	Emax, [6]	pEC50, [3]	pEC50, [4]
pathway (G protein / arrestin sensor): G11	201	802	6.8	9.54
pathway (G protein / arrestin sensor): G12	–	83.2	–	10.2
pathway (G protein / arrestin sensor): G13	–	484	–	9.16
pathway (G protein / arrestin sensor): G14	162	871	6.88	9.54
pathway (G protein / arrestin sensor): G15	78.9	1050	7.54	8.75
pathway (G protein / arrestin sensor): Gi1	94.8	478	6.64	8.14
pathway (G protein / arrestin sensor): Gi2	65.7	257	6.75	7.87
pathway (G protein / arrestin sensor): GoA	81.3	149	6.7	7.83
pathway (G protein / arrestin sensor): GoB	161	360	6.78	8.14
pathway (G protein / arrestin sensor): Gq	171	576	6.91	9.71
pathway (G protein / arrestin sensor): Gz	32.3	204	6.93	8.65
pathway (G protein / arrestin sensor): βarr1/GRK2	–	1740	–	8.62
pathway (G protein / arrestin sensor): βarr2	–	889	–	8.54
pathway (G protein / arrestin sensor): βarr2/GRK2	–	1180	–	8.52

NC(CCC(=O)O)C(=O)O (stereo not drawn) [Glutamate]
[7]
Conditions	pEC50
pathway (G protein / arrestin sensor): Gi1	5.6
pathway (G protein / arrestin sensor): Gi2	5.52
pathway (G protein / arrestin sensor): GoA	6.07
pathway (G protein / arrestin sensor): GoB	5.99
pathway (G protein / arrestin sensor): Gz	5.49

CCCCCC(O)CC(=O)O (stereo not drawn) [3-HOA]
Conditions	Emax, [9]	pEC50, [8]
pathway (G protein / arrestin sensor): G13	97.9	4.08
pathway (G protein / arrestin sensor): Gi1	415	5.63
pathway (G protein / arrestin sensor): Gi2	190	5.71
pathway (G protein / arrestin sensor): GoA	187	5.5
pathway (G protein / arrestin sensor): GoB	317	5.45
pathway (G protein / arrestin sensor): Gz	178	5.25
pathway (G protein / arrestin sensor): βarr1/GRK2	605	3.49
pathway (G protein / arrestin sensor): βarr2	115	3.52
pathway (G protein / arrestin sensor): βarr2/GRK2	487	3.47

Cl [pH (proton)]
Conditions	Emax, [13]	Emax, [14]	Emax, [15]	pEC50, [10]	pEC50, [11]	pEC50, [12]
pathway (G protein / arrestin sensor): G11	164	–	849	6.64	–	7.35
pathway (G protein / arrestin sensor): G12	–	–	63.4	–	–	7.71
pathway (G protein / arrestin sensor): G13	–	117	65.6	–	7.9	8.24
pathway (G protein / arrestin sensor): G14	61.3	–	871	6.26	–	7.2
pathway (G protein / arrestin sensor): G15	111	–	446	6.59	–	6.49
pathway (G protein / arrestin sensor): Gi1	–	–	582	–	–	6.56
pathway (G protein / arrestin sensor): Gi2	–	–	454	–	–	6.63
pathway (G protein / arrestin sensor): GoA	–	–	296	–	–	7.17
pathway (G protein / arrestin sensor): GoB	–	86.8	428	–	6.3	7.41
pathway (G protein / arrestin sensor): Gq	152	–	749	6.73	–	7.4
pathway (G protein / arrestin sensor): Gs	44.2	32.3	44.9	7.91	7	6.51
pathway (G protein / arrestin sensor): βarr1/GRK2	41.4	57.6	76.2	–	5.98	6.25
pathway (G protein / arrestin sensor): βarr2	173	68.8	103	6.99	6.31	6
pathway (G protein / arrestin sensor): βarr2/GRK2	–	–	147	–	–	6.07
